Data as given in patent US20080032924A1 (priority 2004, published 2008).
Entries after “also recorded” stand apart in the source; their conditions may differ. Where no end group is shown, it is not given here.

Key:
[1] = system: F. oxysporum mycelia; assay type: cell-based, Fusarium oxysporum
[2] = system: Ascochyta rabiei spores; assay type: cell-based
[3] = system: Fusarium graminearum spores; assay type: cell-based
[4] = system: Colletotrichum gloeosporioides spores; assay type: cell-based; parameters: key: an N indicates that no activity was observed
[5] = system: Escherichia coli; assay type: cell-based
[6] = system: Fusarium oxysporum spores; assay type: cell-based
[7] = system: Micrococcus luteus; assay type: cell-based
[8] = system: F. graminearum mycelia; assay type: cell-based, Fusarium graminearum
[9] = system: Aspergillus niger spores; assay type: cell-based; parameters: key: an N indicates that no activity was observed
[10] = system: Leptosphaeria maculans spores; assay type: cell-based
[11] = system: C. parapsilosis; assay: NCCLS M27-A2 microbroth dilution method; assay type: cell-based; details: synthetic peptide, tested at 0.125-64 μg/ml
Procedure: (§1) Synthetic Gm-moricinA was also tested against six yeast species using the NCCLS M27-A2 microbroth dilution method at the Women's and Children's Hospital (Adelaide, Australia). The yeasts tested were Candida albicans, C. parapsilosis, C. glabrata, C. krusei, C. tropicalis and Cryptococcus neoformans. The peptide was tested at 0.125-64 μg/ml, with each yeast species tested in duplicate. Trays were read at 24, 48 or 72 hours as appropriate.

[12] = system: Candida albicans; assay: NCCLS M27-A2 microbroth dilution method; assay type: cell-based; details: synthetic peptide; C. albicans; tested at 0.125-64 μg/ml; read at 24, 48 or 72 hours
Procedure: as §1

[13] = system: C. tropicalis; assay: NCCLS M27-A2 microbroth dilution method; assay type: cell-based; details: synthetic peptide, tested at 0.125-64 μg/ml
Procedure: as §1

[14] = system: C. glabrata; assay: NCCLS M27-A2 microbroth dilution method; assay type: cell-based; details: synthetic peptide, tested at 0.125-64 μg/ml
Procedure: as §1

[15] = system: Cryptococcus neoformans; assay: NCCLS M27-A2 microbroth dilution method; assay type: cell-based; details: synthetic peptide; C. neoformans; tested at 0.125-64 μg/ml
Procedure: as §1

[16] = system: C. krusei; assay: NCCLS M27-A2 microbroth dilution method; assay type: cell-based; details: synthetic peptide, tested at 0.125-64 μg/ml
Procedure: as §1

| Substance | lowest concentration at which activity was observed in the zone inhibition assay, Fom [1] | lowest concentration at which activity was observed in the zone inhibition assay, Ara [2] | lowest concentration at which activity was observed in the zone inhibition assay, Fgr [3] | lowest concentration at which activity was observed in the zone inhibition assay, Cgl [4] | lowest concentration at which activity was observed in the zone inhibition assay, Eco [5] | lowest concentration at which activity was observed in the zone inhibition assay, Fox [6] | lowest concentration at which activity was observed in the zone inhibition assay, Mlu [7] | lowest concentration at which activity was observed in the zone inhibition assay, Fgm [8] | lowest concentration at which activity was observed in the zone inhibition assay, Ani [9] | lowest concentration at which activity was observed in the zone inhibition assay, Lma [10] | activity against F. graminearum [3] | MIC90 [11] | MIC90 [12] | MIC90 [13] | MIC90 [14] | MIC90 [15] | MIC90 [16] | activity against A. rabiei [2] | activity against L. maculans [10] |
| --- | --- | --- | --- | --- | --- | --- | --- | --- | --- | --- | --- | --- | --- | --- | --- | --- | --- | --- | --- |
| Bm-moricin: Synthetic B. mori moricin (residues 25 to 66 of SEQ ID NO:16) (AKIPIKAIKTVGKAVGKGLRAINIASTANDVFNFLKPKKRKH; listed as Bombyx mori) [reference compound] | 100 µM | 100 µM | 10 µM | N | 10 µM | 100 µM | 10 µM | 180 µM | N | 100 µM | – | – | – | – | – | – | – | – | – |
| Gm-moricinB: Antifungal moricin-like peptide from Galleria mellonella, SEQ ID NO:5 (GGQIIGKALRGINIASTAHDIISQFKPKKKKNH; listed as Galleria mellonella) | 280 µM | – | 10 µM | N | 100 µM | 100 µM | 100 µM | 280 µM | N | 100 µM | showed activity | – | – | – | – | – | – | – | – |
| Gm-moricinC1: Antifungal moricin-like peptide purified from Galleria mellonella hemolymph, SEQ ID NO:48 (KVPIGAIKKGGKIIKKGLGVIGAAGTAHEVYSHVKNRH; listed as Galleria mellonella) | – | – | – | – | – | – | – | – | – | – | had activity | – | – | – | – | – | – | – | – |
| Gm-moricinC2: Moricin-like peptide from Galleria mellonella, SEQ ID NO:53, synthesised (KVPIGAIKKGGKIIKKGLGVLGAAGTAHEVYNHVRNRQ; listed as Galleria mellonella) | 10 µM | – | 1 µM | – | 10 µM | – | 100 µM | 10 µM | N | 10 µM | – | – | – | – | – | – | – | – | – |
| KVNVNAIKKGGKAIGKGFKVISAASTAHDVYEHIKNRRH [Gm-moricinA] | 10 µM | 1 µM | 1 µM | N | 10 µM | 10 µM | 10 µM | 100 µM | N | 10 µM | had activity; also recorded: showed activity | 4.0 µg/mL | 64.0 µg/mL | 4.0 µg/mL | 64.0 µg/mL | 4.0 µg/mL | 8.0 µg/mL | showed activity | showed activity |
